# Laboratory results: the supplement of paper PMC10627819
# Experiments:
# Assay in all cases: Bliss interaction score (quartile over a dose matrix) (fitness difference); higher = more antagonism (negative = synergy)
# S. aureus Newman = system: S. aureus Newman
# Procedure, shortened: (§1)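 OD595 was read at entry into stationary phase and expressed relative to the robust mean of the no-drug wells on the same plate, capped at 1. The resulting ratio is the fitness value. The Bliss score, observed fitness minus product-based expected fitness with single-drug fitness inferred from combinations, is summarised by quartiles over technical, biological and donor/recipient replicates.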
# S. aureus DSM 20231 = system: S. aureus DSM 20231
# Procedure, shortened: as §1
# S. pneumoniae D39V = system: S. pneumoniae D39V
# Procedure, shortened: as §1
# B. subtilis 168 = system: B. subtilis 168
# Procedure, shortened: as §1
# 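Further: first quartile when negative (synergy) and third quartile when positive (antagonism).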
smiles,measurement,setting,value
O=C(O)[C@H]1/C(=C/CO)O[C@@H]2CC(=O)N21 [Clavulanic] + COc1ccc(C[C@H](N)C(=O)N[C@H]2[C@@H](O)[C@H](n3cnc4c(N(C)C)ncnc43)O[C@@H]2CO)cc1 [Puromycin],Bliss interaction score,S. aureus Newman,-0.0706
same,Bliss interaction score,S. aureus DSM 20231,0.0964
same,Bliss interaction score,S. pneumoniae D39V,0.0764
same,Bliss interaction score,B. subtilis 168,0.0481
O=C(O)[C@H]1/C(=C/CO)O[C@@H]2CC(=O)N21 [Clavulanic] + COc1cccc2c1C(=O)c1c(O)c3c(c(O)c1C2=O)C[C@@](O)(C(=O)CO)C[C@@H]3O[C@H]1C[C@H](N)[C@H](O)[C@H](C)O1 [Doxorubicin],Bliss interaction score,S. aureus Newman,0.0836
same,Bliss interaction score,S. aureus DSM 20231,0.0451
same,Bliss interaction score,S. pneumoniae D39V,0.0444
same,Bliss interaction score,B. subtilis 168,0.067
O=C(O)[C@H]1/C(=C/CO)O[C@@H]2CC(=O)N21 [Clavulanic] + C[C@@H]1O[C@@H]1P(=O)(O)O [Fosfomycin],Bliss interaction score,S. aureus Newman,0.258
same,Bliss interaction score,S. aureus DSM 20231,0.0474
same,Bliss interaction score,S. pneumoniae D39V,-0.0291
same,Bliss interaction score,B. subtilis 168,-0.089
O=C(O)[C@H]1/C(=C/CO)O[C@@H]2CC(=O)N21 [Clavulanic] + C[C@@H](O)[C@H]1C(=O)N2C(C(=O)O)=C(SCCNC=N)C[C@H]12 [Imipenem],Bliss interaction score,S. aureus Newman,-0.0736
same,Bliss interaction score,S. aureus DSM 20231,0.094
same,Bliss interaction score,S. pneumoniae D39V,0.0559
same,Bliss interaction score,B. subtilis 168,0.108
O=C(O)[C@H]1/C(=C/CO)O[C@@H]2CC(=O)N21 [Clavulanic] + C[C@H]1COc2c(N3CCN(C)CC3)c(F)cc3c(=O)c(C(=O)O)cn1c23 [Levofloxacin],Bliss interaction score,S. aureus Newman,0.242
same,Bliss interaction score,S. aureus DSM 20231,-0.222
same,Bliss interaction score,S. pneumoniae D39V,-0.197
same,Bliss interaction score,B. subtilis 168,-0.024
O=C(O)[C@H]1/C(=C/CO)O[C@@H]2CC(=O)N21 [Clavulanic] + C[C@H]1c2cccc(O)c2C(=O)C2=C(O)[C@]3(O)C(=O)C(C(N)=O)=C(O)[C@@H](N(C)C)[C@@H]3[C@@H](O)[C@@H]21 [Doxycycline],Bliss interaction score,S. aureus Newman,0.268
same,Bliss interaction score,S. aureus DSM 20231,-0.273
same,Bliss interaction score,S. pneumoniae D39V,-0.0431
same,Bliss interaction score,B. subtilis 168,0.0656
O=C(O)[C@H]1/C(=C/CO)O[C@@H]2CC(=O)N21 [Clavulanic] + C[n+]1ccc(-c2cc[n+](C)cc2)cc1 [Paraquat],Bliss interaction score,S. aureus Newman,-0.0709
same,Bliss interaction score,S. aureus DSM 20231,0.0962
same,Bliss interaction score,S. pneumoniae D39V,0.0522
same,Bliss interaction score,B. subtilis 168,-0.0541
O=C(O)[C@H]1/C(=C/CO)O[C@@H]2CC(=O)N21 [Clavulanic] + Cc1cc(NS(=O)(=O)c2ccc(N)cc2)no1 [Sulfamethoxazol],Bliss interaction score,S. aureus Newman,-0.0365
same,Bliss interaction score,S. aureus DSM 20231,0.0966
same,Bliss interaction score,S. pneumoniae D39V,0.0674
same,Bliss interaction score,B. subtilis 168,0.0509
O=C(O)[C@H]1/C(=C/CO)O[C@@H]2CC(=O)N21 [Clavulanic] + Cc1ncc([N+](=O)[O-])n1CCO [Metronidazole],Bliss interaction score,S. aureus Newman,-0.112
same,Bliss interaction score,S. aureus DSM 20231,0.0966
same,Bliss interaction score,S. pneumoniae D39V,0.0632
same,Bliss interaction score,B. subtilis 168,0.0385
O=C(O)[C@H]1/C(=C/CO)O[C@@H]2CC(=O)N21 [Clavulanic] + Cc1onc(-c2ccccc2)c1C(=O)N[C@@H]1C(=O)N2[C@@H]1SC(C)(C)[C@@H]2C(=O)O [Oxacillin],Bliss interaction score,S. aureus Newman,0.0727
same,Bliss interaction score,S. aureus DSM 20231,0.0346
same,Bliss interaction score,S. pneumoniae D39V,-0.051
same,Bliss interaction score,B. subtilis 168,0.0555
O=C(O)[C@H]1/C(=C/CO)O[C@@H]2CC(=O)N21 [Clavulanic] + Clc1ccc(COC(Cn2ccnc2)c2ccc(Cl)cc2Cl)c(Cl)c1 [Miconazole],Bliss interaction score,S. aureus Newman,-0.0736
same,Bliss interaction score,S. aureus DSM 20231,0.101
same,Bliss interaction score,S. pneumoniae D39V,0.0698
same,Bliss interaction score,B. subtilis 168,0.0639
O=C(O)[C@H]1/C(=C/CO)O[C@@H]2CC(=O)N21 [Clavulanic] + Cn1nnc(-c2ccc(-c3ccc(N4C[C@H](CO)OC4=O)cc3F)cn2)n1 [Tedizolid],Bliss interaction score,S. aureus Newman,0.255
same,Bliss interaction score,S. aureus DSM 20231,-0.18
same,Bliss interaction score,S. pneumoniae D39V,-0.0878
same,Bliss interaction score,B. subtilis 168,0.0942
O=C(O)[C@H]1/C(=C/CO)O[C@@H]2CC(=O)N21 [Clavulanic] + N[C@@H]1CONC1=O [CycloserineD],Bliss interaction score,S. aureus Newman,-0.0992
same,Bliss interaction score,S. aureus DSM 20231,0.116
same,Bliss interaction score,S. pneumoniae D39V,-0.0906
same,Bliss interaction score,B. subtilis 168,0.0614
O=C(O)[C@H]1/C(=C/CO)O[C@@H]2CC(=O)N21 [Clavulanic] + O=C1CN(/N=C/c2ccc([N+](=O)[O-])o2)C(=O)N1 [Nitrofurantoin],Bliss interaction score,S. aureus Newman,0.102
same,Bliss interaction score,S. aureus DSM 20231,0.039
same,Bliss interaction score,S. pneumoniae D39V,0.0879
same,Bliss interaction score,B. subtilis 168,0.0868
O=C(O)[C@H]1/C(=C/CO)O[C@@H]2CC(=O)N21 [Clavulanic] + O=C(O[C@@H]1Cc2c(O)cc(O)cc2O[C@@H]1c1cc(O)c(O)c(O)c1)c1cc(O)c(O)c(O)c1 [EGCG],Bliss interaction score,S. aureus Newman,0.168
same,Bliss interaction score,S. aureus DSM 20231,0.0689
same,Bliss interaction score,S. pneumoniae D39V,0.0628
same,Bliss interaction score,B. subtilis 168,-0.0667
O=C(O)[C@H]1/C(=C/CO)O[C@@H]2CC(=O)N21 [Clavulanic] + Oc1cc(Cl)ccc1Oc1ccc(Cl)cc1Cl [Triclosan],Bliss interaction score,S. aureus Newman,-0.0656
same,Bliss interaction score,S. aureus DSM 20231,0.081
same,Bliss interaction score,S. pneumoniae D39V,0.0445
same,Bliss interaction score,B. subtilis 168,0.0658
CNC(C)C1CCC(N)C(OC2C(N)CC(N)C(OC3OCC(C)(O)C(NC)C3O)C2O)O1 (stereo not drawn) [Gentamicin] + CC1(C)S[C@@H]2[C@H](NC(=O)Cc3ccccc3)C(=O)N2[C@H]1C(=O)O [PenicillinG],Bliss interaction score,S. aureus Newman; main component drawn,-0.0512
same,Bliss interaction score,S. aureus DSM 20231; main component drawn,0.0582
same,Bliss interaction score,S. pneumoniae D39V; main component drawn,0.0914
same,Bliss interaction score,B. subtilis 168; main component drawn,0.0952
CNC(C)C1CCC(N)C(OC2C(N)CC(N)C(OC3OCC(C)(O)C(NC)C3O)C2O)O1 (stereo not drawn) [Gentamicin] + CC[C@H]1OC(=O)[C@H](C)C(=O)[C@H](C)[C@@H](O[C@@H]2O[C@H](C)C[C@H](N(C)C)[C@H]2O)[C@](C)(OC)C[C@@H](C)C(=O)[C@H](C)[C@H]2N(CCCCn3cnc(-c4cccnc4)c3)C(=O)O[C@]12C [Telithromycin],Bliss interaction score,S. aureus Newman; main component drawn,0.0544
same,Bliss interaction score,S. aureus DSM 20231; main component drawn,0.0492
same,Bliss interaction score,S. pneumoniae D39V; main component drawn,0.0542
same,Bliss interaction score,B. subtilis 168; main component drawn,0.0903
CNC(C)C1CCC(N)C(OC2C(N)CC(N)C(OC3OCC(C)(O)C(NC)C3O)C2O)O1 (stereo not drawn) [Gentamicin] + CN[C@H](CC(C)C)C(=O)N[C@H]1C(=O)N[C@@H](CC(N)=O)C(=O)N[C@H]2C(=O)N[C@H]3C(=O)N[C@H](C(=O)N[C@H](C(=O)O)c4cc(O)cc(O)c4-c4cc3ccc4O)[C@H](O[C@H]3C[C@](C)(N)[C@@H](O)[C@H](C)O3)c3ccc(c(Cl)c3)Oc3cc2cc(c3O[C@@H]2O[C@H](CO)[C@@H](O)[C@H](O)[C@H]2O[C@H]2C[C@](C)(NCc3ccc(-c4ccc(Cl)cc4)cc3)[C@@H](O)[C@H](C)O2)Oc2ccc(cc2Cl)[C@H]1O [Oritavancin],Bliss interaction score,S. aureus Newman; main component drawn,0.0919
same,Bliss interaction score,S. aureus DSM 20231; main component drawn,-0.0507
same,Bliss interaction score,S. pneumoniae D39V; main component drawn,0.0748
same,Bliss interaction score,B. subtilis 168; main component drawn,0.048
CNC(C)C1CCC(N)C(OC2C(N)CC(N)C(OC3OCC(C)(O)C(NC)C3O)C2O)O1 (stereo not drawn) [Gentamicin] + CO[C@@]12[C@H](COC(N)=O)C3=C(C(=O)C(C)=C(N)C3=O)N1C[C@@H]1N[C@@H]12 [MitomycinC],Bliss interaction score,S. aureus Newman; main component drawn,0.0445
same,Bliss interaction score,S. aureus DSM 20231; main component drawn,-0.0573
same,Bliss interaction score,S. pneumoniae D39V; main component drawn,0.0575
same,Bliss interaction score,B. subtilis 168; main component drawn,-0.0792
CNC(C)C1CCC(N)C(OC2C(N)CC(N)C(OC3OCC(C)(O)C(NC)C3O)C2O)O1 (stereo not drawn) [Gentamicin] + Oc1cc(Cl)ccc1Oc1ccc(Cl)cc1Cl [Triclosan],Bliss interaction score,S. aureus Newman; main component drawn,0.0182
same,Bliss interaction score,S. aureus DSM 20231; main component drawn,-0.0821
same,Bliss interaction score,S. pneumoniae D39V; main component drawn,0.0731
same,Bliss interaction score,B. subtilis 168; main component drawn,-0.17
Clc1ccc(COC(Cn2ccnc2)c2ccc(Cl)cc2Cl)c(Cl)c1 (stereo not drawn) [Miconazole] + CC1(C)S[C@@H]2[C@H](NC(=O)Cc3ccccc3)C(=O)N2[C@H]1C(=O)O [PenicillinG],Bliss interaction score,S. aureus Newman,-0.0331
same,Bliss interaction score,S. aureus DSM 20231,0.0525
same,Bliss interaction score,S. pneumoniae D39V,0.106
same,Bliss interaction score,B. subtilis 168,0.0707
Clc1ccc(COC(Cn2ccnc2)c2ccc(Cl)cc2Cl)c(Cl)c1 (stereo not drawn) [Miconazole] + CCCCCCCCCC(=O)N[C@@H]1[C@H]([C@@H]([C@H](O[C@H]1OC2=C3C=C4C=C2OC5=C(C=C(C=C5)[C@H]([C@H]6C(=O)N[C@@H](C7=C(C(=CC(=C7)O)OC8[C@H]([C@H]([C@@H]([C@H](O8)CO)O)O)O)C9=C(C=CC(=C9)[C@H](C(=O)N6)NC(=O)[C@@H]4NC(=O)[C@@H]1C2=CC(=CC(=C2)OC2=C(C=CC(=C2)[C@H](C(=O)N[C@H](CC2=CC(=C(O3)C=C2)Cl)C(=O)N1)N)O)O)O)C(=O)O)O[C@H]1[C@@H]([C@H]([C@@H]([C@H](O1)CO)O)O)NC(=O)C)Cl)CO)O)O [Teicoplanin],Bliss interaction score,S. aureus Newman; main component drawn,-0.0558
same,Bliss interaction score,S. aureus DSM 20231; main component drawn,-0.0409
same,Bliss interaction score,S. pneumoniae D39V; main component drawn,0.115
same,Bliss interaction score,B. subtilis 168; main component drawn,0.117
Clc1ccc(COC(Cn2ccnc2)c2ccc(Cl)cc2Cl)c(Cl)c1 (stereo not drawn) [Miconazole] + CC[C@H]1OC(=O)[C@H](C)C(=O)[C@H](C)[C@@H](O[C@@H]2O[C@H](C)C[C@H](N(C)C)[C@H]2O)[C@](C)(OC)C[C@@H](C)C(=O)[C@H](C)[C@H]2N(CCCCn3cnc(-c4cccnc4)c3)C(=O)O[C@]12C [Telithromycin],Bliss interaction score,S. aureus Newman,0.0508
same,Bliss interaction score,S. aureus DSM 20231,0.04
same,Bliss interaction score,S. pneumoniae D39V,0.104
same,Bliss interaction score,B. subtilis 168,0.0586
Clc1ccc(COC(Cn2ccnc2)c2ccc(Cl)cc2Cl)c(Cl)c1 (stereo not drawn) [Miconazole] + CN[C@H](CC(C)C)C(=O)N[C@H]1C(=O)N[C@@H](CC(N)=O)C(=O)N[C@H]2C(=O)N[C@H]3C(=O)N[C@H](C(=O)N[C@H](C(=O)O)c4cc(O)cc(O)c4-c4cc3ccc4O)[C@H](O[C@H]3C[C@](C)(N)[C@@H](O)[C@H](C)O3)c3ccc(c(Cl)c3)Oc3cc2cc(c3O[C@@H]2O[C@H](CO)[C@@H](O)[C@H](O)[C@H]2O[C@H]2C[C@](C)(NCc3ccc(-c4ccc(Cl)cc4)cc3)[C@@H](O)[C@H](C)O2)Oc2ccc(cc2Cl)[C@H]1O [Oritavancin],Bliss interaction score,S. aureus Newman,-0.0754
same,Bliss interaction score,S. aureus DSM 20231,-0.0286
same,Bliss interaction score,S. pneumoniae D39V,-0.0639
same,Bliss interaction score,B. subtilis 168,-0.0225
Clc1ccc(COC(Cn2ccnc2)c2ccc(Cl)cc2Cl)c(Cl)c1 (stereo not drawn) [Miconazole] + CO[C@@H]1[C@@H](OC(N)=O)[C@@H](O)[C@H](Oc2ccc3c(O)c(NC(=O)c4ccc(O)c(CC=C(C)C)c4)c(=O)oc3c2C)OC1(C)C [Novobiocin],Bliss interaction score,S. aureus Newman,0.0415
same,Bliss interaction score,S. aureus DSM 20231,0.0483
same,Bliss interaction score,S. pneumoniae D39V,0.121
same,Bliss interaction score,B. subtilis 168,0.0735
Clc1ccc(COC(Cn2ccnc2)c2ccc(Cl)cc2Cl)c(Cl)c1 (stereo not drawn) [Miconazole] + CO[C@@]12[C@H](COC(N)=O)C3=C(C(=O)C(C)=C(N)C3=O)N1C[C@@H]1N[C@@H]12 [MitomycinC],Bliss interaction score,S. aureus Newman,-0.188
same,Bliss interaction score,S. aureus DSM 20231,0.0383
same,Bliss interaction score,S. pneumoniae D39V,0.0662
same,Bliss interaction score,B. subtilis 168,-0.066
